Test results reported in patent EP0745595A1, “3-(3-Aryloxyphenyl)-1-(substituted methyl)-s-triazine-2,4,6-oxo or thiotrione herbicidal agents” (American Cyanamid Company, priority 1995, dated 1996).

Columns and labels:
Type in all cases: in vivo
[1] = system: IPOMOEA SPP.; assay: Postemergence herbicidal evaluation, IPOSS (Morningglory spp.);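 note: higher means more injury with 8 approaching complete kill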
In short: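 In this greenhouse postemergence herbicide test on Ipomoea spp. (morningglory), compounds in 50/50 acetone/water with 0.5% TWEEN®20 were sprayed at 40 psi onto seedlings about two weeks old grown in jiffy flats. After four to five weeks, injury was scored on a 0-9 scale covering stand, vigor, malformation, size, chlorosis and overall appearance versus control, with repeat tests averaged.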

[2] = system: GALIUM APARINE; assay: Postemergence herbicidal evaluation, GALAP (Galium); design: key to GALAP rating / Herbicidal effect rating, GALAP / GALAP: 0-9 visual rating scale vs untreated control;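 note: higher means more injury with 8 approaching complete kill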
In short: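 In this postemergence greenhouse test, two-week-old Galium aparine seedlings grown in jiffy flats received a 40 psi spray of compound in acetone/water (50/50) with 0.5% TWEEN®20 surfactant. After four to five weeks, stand, vigor, malformation, size, chlorosis and overall appearance were compared with untreated controls on a 0-9 scale, averaging multiple tests.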

[3] = system: TRITICUM AESTIVUM, CV. APOLLO; assay: Postemergence herbicidal evaluation, TRZAWO (Wheat, Winter, CV. APOLLO);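 note: higher means more injury with 8 approaching complete kill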
In short: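 This greenhouse postemergence test applied compounds to roughly two-week-old wheat seedlings grown in jiffy flats. The spray solution was 50/50 acetone/water with 0.5% TWEEN®20, a polyoxyethylene sorbitan monolaurate, sprayed from a nozzle run at 40 psi. After four to five weeks of standard greenhouse care, injury was scored from 0 to 9 by comparing stand, vigor, malformation, size, chlorosis and overall appearance with a control. Multiple tests were averaged.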

[4] = system: CHENOPODIUM ALBUM, L.; assay: Preemergence herbicidal evaluation, CHEAL (Lambsquarters, Common);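 note: higher means more injury with 8 approaching complete kill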
In short: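 Seeds mixed with potting soil were planted on about one inch of soil in cups, then sprayed with aqueous acetone solution of test compound at about 0.125 to 0.50 kg per hectare. Plants grown under greenhouse conditions; visual rating on a 0-9 scale versus untreated control at 4-5 weeks.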

[5] = system: SETARIA VIRIDIS, (L) BEAU; assay: Postemergence herbicidal evaluation, SETVI (Foxtail, Green); design: key to SETVI rating / Herbicidal effect rating, SETVI / SETVI: 0-9 visual rating scale vs untreated control
In short: (§1)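 Ratings (0-9) reflect visual stand, vigor, malformation, size and chlorosis compared with untreated plants, assessed 4-5 weeks after postemergence spraying. Treatment was applied to roughly two-week-old seedlings at about 0.125-0.500 kg/ha in acetone/water with 0.5% Tween 20; replicate tests were averaged.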

[6] = system: AMBROSIA ARTEMISIIFOLIA, L.; assay: Postemergence herbicidal evaluation, AMBEL (Ragweed, Common);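 note: higher means more injury with 8 approaching complete kill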
In short: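 Postemergence herbicidal activity on AMBEL (common ragweed) was assessed on two-week-old seedlings grown in jiffy flats. Treatment solutions of 50/50 acetone/water with 0.5% TWEEN®20 surfactant were sprayed at 40 psi. After four to five weeks in the greenhouse, plants were scored 0-9 against a control for stand, vigor, malformation, size, chlorosis and overall appearance, with multiple tests averaged.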

[7] = system: CHENOPODIUM ALBUM, L.; assay: Postemergence herbicidal evaluation, CHEAL (Lambsquarters, Common);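 note: higher means more injury with 8 approaching complete kill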
In short: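 Postemergence herbicidal activity on Chenopodium album was tested by spraying two-week-old seedlings grown in jiffy flats with compound in acetone/water (50/50) plus 0.5% TWEEN®20, using a 40 psi nozzle. Four to five weeks after treatment, stand, vigor, malformation, size, chlorosis and overall appearance were scored 0-9 relative to controls, with repeat tests averaged.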

[8] = system: CASSIA OBTUSIFOLIA, L.; assay: Postemergence herbicidal evaluation, CASOB (Sicklepod); design: key to CASOB rating / Herbicidal effect rating, CASOB / CASOB: 0-9 visual rating scale vs untreated control;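 note: higher means more injury with 8 approaching complete kill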
In short: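 Postemergence foliar spray at approximately 0.125–0.500 kg/ha onto two-week seedlings; greenhouse hold, then 0–9 visual injury rating after 4–5 weeks.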

[9] = system: ABUTILON THEOPHRASTI, MEDIC.; assay: Postemergence herbicidal evaluation, ABUTH (Velvetleaf);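 note: higher means more injury with 8 approaching complete kill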
In short: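 This postemergence herbicide test used two-week-old velvetleaf seedlings grown in jiffy flats. Each compound was sprayed at 40 psi as a dispersion in 50/50 acetone/water with 0.5% TWEEN®20 surfactant. Plants then received routine greenhouse care. After four to five weeks, injury was scored visually on a 0-9 scale against a control, and replicate tests were averaged.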

[10] = system: ECHINOCHLOA CRUS-GALLI, (L) BEAU; assay: Postemergence herbicidal evaluation, ECHCG (Barnyardgrass); design: key to ECHCG rating / Herbicidal effect rating, ECHCG / ECHCG: 0-9 visual rating scale vs untreated control
In short: as §1

[11] = system: ORYZA SATIVA, L. TEBONNET; assay: Rice tolerance to post-transplant applications under flooded paddy conditions, ORYSAT (Rice, Tebonnet); settings: post-transplanted rice
In short: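 Rated on a visual 0–9 scale against untreated plants 3–4 weeks after application, rice (cv. Tebonnet) tolerance was tested by applying compounds (approx. 0.5–0.063 kg/ha, acetone/water 50/50) to flooded soil three days post-transplant, water kept 1.5–3 cm deep.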

Cn1c(=O)[nH]c(=O)n(-c2cc(Oc3c(F)cc(C(F)(F)F)cc3Cl)ccc2[N+](=O)[O-])c1=O [D, reference compound]
IPOSS ([1]; Rate 0.016 kg/ha): 7.3 | IPOSS ([1]; Rate 0.031 kg/ha): 7.7 | IPOSS ([1]; Rate 0.063 kg/ha): 7.3 | IPOSS ([1]; Rate 0.125 kg/ha): 9.0 | GALAP ([2]; Rate 0.008 kg/ha): 4.0 | GALAP ([2]; Rate 0.016 kg/ha): 8.0 | GALAP ([2]; Rate 0.031 kg/ha): 9.0 | GALAP ([2]; Rate 0.063 kg/ha): 8.5 | GALAP ([2]; Rate 0.125 kg/ha): 9.0 | TRZAWO ([3]; Rate 0.016 kg/ha): 3.5 | TRZAWO ([3]; Rate 0.031 kg/ha): 4.5 | TRZAWO ([3]; Rate 0.063 kg/ha): 5.3 | TRZAWO ([3]; Rate 0.125 kg/ha): 5.3 | CHEAL ([4]; Rate 0.031 kg/ha): 9.0 | CHEAL ([4]; Rate 0.063 kg/ha): 9.0 | CHEAL ([4]; Rate 0.125 kg/ha): 9.0 | CHEAL ([4]; Rate 0.250 kg/ha): 9.0 | SETVI ([5]; Rate 0.008 kg/ha): 0.0 | SETVI ([5]; Rate 0.016 kg/ha): 1.0 | SETVI ([5]; Rate 0.031 kg/ha): 1.3 | SETVI ([5]; Rate 0.063 kg/ha): 1.3 | SETVI ([5]; Rate 0.125 kg/ha): 1.5 | AMBEL ([6]; Rate 0.008 kg/ha): 5.0 | AMBEL ([6]; Rate 0.016 kg/ha): 7.3 | AMBEL ([6]; Rate 0.031 kg/ha): 8.0 | AMBEL ([6]; Rate 0.063 kg/ha): 8.0 | AMBEL ([6]; Rate 0.125 kg/ha): 8.5 | CHEAL ([7]; Rate 0.008 kg/ha): 7.0 | CHEAL ([7]; Rate 0.016 kg/ha): 7.3 | CHEAL ([7]; Rate 0.031 kg/ha): 6.3 | CHEAL ([7]; Rate 0.063 kg/ha): 7.0 | CHEAL ([7]; Rate 0.125 kg/ha): 9.0 | CASOB ([8]; Rate 0.008 kg/ha): 1.0 | CASOB ([8]; Rate 0.016 kg/ha): 4.3 | CASOB ([8]; Rate 0.031 kg/ha): 5.0 | CASOB ([8]; Rate 0.063 kg/ha): 6.0 | CASOB ([8]; Rate 0.125 kg/ha): 9.0 | ABUTH ([9]; Rate 0.008 kg/ha): 0.0 | ABUTH ([9]; Rate 0.016 kg/ha): 8.3 | ABUTH ([9]; Rate 0.031 kg/ha): 8.7 | ABUTH ([9]; Rate 0.063 kg/ha): 9.0 | ABUTH ([9]; Rate 0.125 kg/ha): 9.0 | ECHCG ([10]; Rate 0.016 kg/ha): 3.0 | ECHCG ([10]; Rate 0.031 kg/ha): 1.5 | ECHCG ([10]; Rate 0.063 kg/ha): 2.0 | ECHCG ([10]; Rate 0.125 kg/ha): 2.5 | ORYSAT ([11]; Rate 0.031 kg/ha): 3.0 | ORYSAT ([11]; Rate 0.063 kg/ha): 3.0 | ORYSAT ([11]; Rate 0.125 kg/ha): 3.0 | ORYSAT ([11]; Rate 0.250 kg/ha): 6.0

Cn1c(=O)[nH]c(=O)n(-c2cc(Oc3ccc(C(F)(F)F)cc3Cl)ccc2Cl)c1=O [F, reference compound]
IPOSS ([1]; Rate 0.016 kg/ha): 3.0 | IPOSS ([1]; Rate 0.032 kg/ha): 4.0 | IPOSS ([1]; Rate 0.063 kg/ha): 6.0 | IPOSS ([1]; Rate 0.125 kg/ha): 5.0 | IPOSS ([1]; Rate 0.250 kg/ha): 6.0 | IPOSS ([1]; Rate 0.500 kg/ha): 7.0 | GALAP ([2]; Rate 0.016 kg/ha): 5.0 | GALAP ([2]; Rate 0.032 kg/ha): 6.0 | GALAP ([2]; Rate 0.063 kg/ha): 6.0 | GALAP ([2]; Rate 0.125 kg/ha): 6.0 | GALAP ([2]; Rate 0.250 kg/ha): 8.0 | GALAP ([2]; Rate 0.500 kg/ha): 6.0 | TRZAWO ([3]; Rate 0.016 kg/ha): 1.5 | TRZAWO ([3]; Rate 0.032 kg/ha): 1.5 | TRZAWO ([3]; Rate 0.063 kg/ha): 2.5 | TRZAWO ([3]; Rate 0.125 kg/ha): 3.0 | TRZAWO ([3]; Rate 0.250 kg/ha): 3.5 | TRZAWO ([3]; Rate 0.500 kg/ha): 3.5 | CHEAL ([4]; Rate 0.063 kg/ha): 9.0 | CHEAL ([4]; Rate 0.125 kg/ha): 9.0 | CHEAL ([4]; Rate 0.250 kg/ha): 9.0 | CHEAL ([4]; Rate 0.500 kg/ha): 9.0 | SETVI ([5]; Rate 0.016 kg/ha): 0.0 | SETVI ([5]; Rate 0.032 kg/ha): 1.0 | SETVI ([5]; Rate 0.063 kg/ha): 3.0 | SETVI ([5]; Rate 0.125 kg/ha): 2.0 | SETVI ([5]; Rate 0.250 kg/ha): 3.0 | SETVI ([5]; Rate 0.500 kg/ha): 3.0 | AMBEL ([6]; Rate 0.016 kg/ha): 2.0 | AMBEL ([6]; Rate 0.032 kg/ha): 3.0 | AMBEL ([6]; Rate 0.063 kg/ha): 6.0 | AMBEL ([6]; Rate 0.125 kg/ha): 6.0 | AMBEL ([6]; Rate 0.250 kg/ha): 6.0 | AMBEL ([6]; Rate 0.500 kg/ha): 7.0 | CHEAL ([7]; Rate 0.016 kg/ha): 4.0 | CHEAL ([7]; Rate 0.032 kg/ha): 5.0 | CHEAL ([7]; Rate 0.063 kg/ha): 6.0 | CHEAL ([7]; Rate 0.125 kg/ha): 8.0 | CHEAL ([7]; Rate 0.250 kg/ha): 9.0 | CHEAL ([7]; Rate 0.500 kg/ha): 9.0 | CASOB ([8]; Rate 0.016 kg/ha): 2.0 | CASOB ([8]; Rate 0.032 kg/ha): 4.0 | CASOB ([8]; Rate 0.063 kg/ha): 5.0 | CASOB ([8]; Rate 0.125 kg/ha): 8.0 | CASOB ([8]; Rate 0.250 kg/ha): 9.0 | CASOB ([8]; Rate 0.500 kg/ha): 6.5 | ABUTH ([9]; Rate 0.016 kg/ha): 4.0 | ABUTH ([9]; Rate 0.032 kg/ha): 4.0 | ABUTH ([9]; Rate 0.063 kg/ha): 5.0 | ABUTH ([9]; Rate 0.125 kg/ha): 5.0 | ABUTH ([9]; Rate 0.250 kg/ha): 7.0 | ABUTH ([9]; Rate 0.500 kg/ha): 9.0 | ECHCG ([10]; Rate 0.016 kg/ha): 0.0 | ECHCG ([10]; Rate 0.032 kg/ha): 0.0 | ECHCG ([10]; Rate 0.063 kg/ha): 0.0 | ECHCG ([10]; Rate 0.125 kg/ha): 1.0 | ECHCG ([10]; Rate 0.250 kg/ha): 2.0 | ECHCG ([10]; Rate 0.500 kg/ha): 2.0 | ORYSAT ([11]; Rate 0.031 kg/ha): 0.0 | ORYSAT ([11]; Rate 0.063 kg/ha): 0.0 | ORYSAT ([11]; Rate 0.125 kg/ha): 1.0 | ORYSAT ([11]; Rate 0.250 kg/ha): 2.0
